We go through 8 compounds from ChEMBL document CHEMBL1201862, “PubChem BioAssay data set” (2004).

Calls of active or inactive are those of the source. Unless noted, the calls are words filed in the database; no cut-off is given here.

For experiment [1], the target named is T1, CAAX prenyl protease 2 (Homo sapiens, UniProt Q9Y256). Kind of experiment: human Rce1 protease inhibitors, dose response, biochemical, yeast membranes, quenched-peptide fluorescence, cherry-pick (AID 588849).
Experiment [2] has as its target T1, CAAX prenyl protease 2. Kind of experiment: human Rce1 protease inhibitors, dose response, biochemical, plate reader, dry powder samples (AID 588848).
For experiment [3], the target named is T2, CAAX prenyl protease 2 (Saccharomyces cerevisiae S288c, UniProt Q03530).
T2 sequence (Q03530 whole entry): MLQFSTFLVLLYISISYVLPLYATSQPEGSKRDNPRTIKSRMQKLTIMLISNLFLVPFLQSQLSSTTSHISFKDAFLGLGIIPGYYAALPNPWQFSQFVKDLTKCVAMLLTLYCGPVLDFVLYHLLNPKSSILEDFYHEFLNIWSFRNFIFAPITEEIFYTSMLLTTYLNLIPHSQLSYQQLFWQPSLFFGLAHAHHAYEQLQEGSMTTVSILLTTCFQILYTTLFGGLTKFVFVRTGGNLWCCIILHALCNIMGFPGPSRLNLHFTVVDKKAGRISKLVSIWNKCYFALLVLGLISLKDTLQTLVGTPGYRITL
Briefly: yeast Rce1 CaaX protease inhibitors, dose response, biochemical, plate reader, dry powder retest (AID 588851).

Experiment [4] has as its target T2, CAAX prenyl protease 2. It counts as biochemical.
In a further experiment the target is Phospholipase D1 (Homo sapiens, UniProt Q13393). Kind of experiment: PLD1 inhibitor potency in cells, dose response (AID 602151).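 Further: cellular PLD1 assay in Calu-1 cells stimulated with PMA.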 It counts as functional.
The target of a further experiment is Phospholipase D2 (Homo sapiens, UniProt O14939). Briefly: PLD2 inhibitor potency in cells, dose response (AID 602147).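 Further: cellular assay in HEK293 cells overexpressing GFP-tagged PLD2.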 It counts as functional.
The nature of experiment [5]: Fluorescence Cell-Based Dose Response to Identify Inhibitors of Thrombin Receptor-Activating Peptide SFLLRN-Mediated P-Selectin Induction on Platelets. [Related pubchem assays: 1663 (Primary HTS), 1889 (retest at dose ), 1891 (counterscreen), 1678 (Project Summary)]. It counts as functional.
Experiment [6] is described as follows: Luminescence Cell-Based Dose Confirmation HTS to Identify Inhibitors of Platelet Dense Granule Release. [Related pubchem assays: 1663 (Primary HTS), 1678 (Summary of Project)]. It counts as functional.
Experiment [7] can be described thus: inhibitors of SFLLRN-triggered platelet P-selectin exposure, dose response, cell-based, fluorescence, flow cytometry, human platelets (AID 2511). It counts as functional.
Experiment [8] in a line: blockers of SFLLRN-triggered platelet ATP secretion – cell-based, human platelets, luminescence, dry powder, dose response (AID 493100). It counts as functional.
Experiment [9] is described as follows: Luminescence Cell-Based Dose Response Follow up to Identify Inhibitors of Platelet Dense Granule Release. [Related pubchem assays (depositor defined):AID1663, AID1678, AID2398]. It counts as functional.
The target in experiment [10] is Luciferin 4-monooxygenase (Photinus pyralis, UniProt P08659). Briefly: firefly luciferase enzyme inhibitors, dose response, biochemical, luminescence (AID 1891).
A further experiment deals with T3, Bcl-2-like protein 10 (Homo sapiens, UniProt Q9HD36).
T3 sequence (Q9HD36 whole entry): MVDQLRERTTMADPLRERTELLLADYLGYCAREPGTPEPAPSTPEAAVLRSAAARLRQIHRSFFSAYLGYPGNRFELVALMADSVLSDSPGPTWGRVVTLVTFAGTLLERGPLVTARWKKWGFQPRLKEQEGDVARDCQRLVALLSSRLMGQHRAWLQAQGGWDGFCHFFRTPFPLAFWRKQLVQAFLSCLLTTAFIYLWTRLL
Briefly: Isothermal titration calorimetry (ITC) with Bcl-B and compounds active in primary screen. [Related pubchem assays (depositor defined):AID1693]. It counts as functional.

The target in experiment [11] is T4, Short transient receptor potential channel 4 (Mus musculus, UniProt Q9QUQ5).
T4 sequence (Q9QUQ5 whole entry): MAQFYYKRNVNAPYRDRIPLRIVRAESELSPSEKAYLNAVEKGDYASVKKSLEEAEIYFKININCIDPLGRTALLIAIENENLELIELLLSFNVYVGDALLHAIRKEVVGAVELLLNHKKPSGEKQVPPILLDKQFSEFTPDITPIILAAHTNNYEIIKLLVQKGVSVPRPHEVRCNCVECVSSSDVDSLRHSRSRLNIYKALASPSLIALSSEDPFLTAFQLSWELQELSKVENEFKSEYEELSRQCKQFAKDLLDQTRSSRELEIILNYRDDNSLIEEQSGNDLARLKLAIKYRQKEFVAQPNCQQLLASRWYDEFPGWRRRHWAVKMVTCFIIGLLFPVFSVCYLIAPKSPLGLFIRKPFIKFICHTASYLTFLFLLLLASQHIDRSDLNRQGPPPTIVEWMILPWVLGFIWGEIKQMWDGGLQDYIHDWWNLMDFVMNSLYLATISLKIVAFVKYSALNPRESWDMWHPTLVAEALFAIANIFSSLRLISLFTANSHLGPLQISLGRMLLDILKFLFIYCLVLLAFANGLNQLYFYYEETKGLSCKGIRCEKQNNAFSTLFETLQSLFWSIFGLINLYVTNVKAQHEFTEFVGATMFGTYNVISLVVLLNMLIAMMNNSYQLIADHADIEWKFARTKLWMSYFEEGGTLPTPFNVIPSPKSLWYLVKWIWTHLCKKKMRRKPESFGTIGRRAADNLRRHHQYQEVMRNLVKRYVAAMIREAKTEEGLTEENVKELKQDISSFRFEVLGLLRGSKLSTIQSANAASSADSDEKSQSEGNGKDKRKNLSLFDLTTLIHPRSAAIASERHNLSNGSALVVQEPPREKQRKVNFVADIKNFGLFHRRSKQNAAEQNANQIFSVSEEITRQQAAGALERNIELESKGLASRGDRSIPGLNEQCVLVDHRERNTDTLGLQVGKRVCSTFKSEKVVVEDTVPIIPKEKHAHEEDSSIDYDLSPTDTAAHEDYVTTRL
Kind of experiment: SAR Analysis for the identification of selective inhibits of the transient receptor potential cation channel C4 (TRPC4): Automated Electrophysiology. [Related pubchem assays (depositor defined):AID2256]. It counts as functional.

The target of experiment [12] is Short transient receptor potential channel 6 (Mus musculus, UniProt Q61143). Kind of experiment: TRPC6 inhibition potency of TRPC4 inhibitor analogs, dose response, selectivity assay for selective TRPC4 inhibitor project, HEK293 cells, membrane potential dye, IC50 (AID 492987). It counts as functional, cell-based.
Experiment [13] deals with T4, Short transient receptor potential channel 4. Kind of experiment: TRPC4 inhibition under acetylcholine activation, SAR follow-up, cell-based, acetylcholine stimulus, HEK293 TRPC4, Fluo-4 (AID 492996). It counts as functional.
Experiment [14] shares this target. Kind of experiment: TRPC4 inhibitor concentration-response, dose response, cell-based, HEK293 TRPC4/mu-opioid, DAMGO stimulus, Fluo-4 (AID 492994). It counts as functional.
For experiment [15], the target named is Beta-adrenergic receptor kinase 1 (Homo sapiens, UniProt P25098). Kind of experiment: aptamer displacement from bead-bound GRK2 – biochemical, cherry pick 1, bead flow cytometry, dose response (AID 504500).
In experiment [16] the target is T5, Carboxy-terminal domain RNA polymerase II polypeptide A small phosphatase 1 (Homo sapiens, UniProt Q9GZU7).
T5 sequence (Q9GZU7 whole entry): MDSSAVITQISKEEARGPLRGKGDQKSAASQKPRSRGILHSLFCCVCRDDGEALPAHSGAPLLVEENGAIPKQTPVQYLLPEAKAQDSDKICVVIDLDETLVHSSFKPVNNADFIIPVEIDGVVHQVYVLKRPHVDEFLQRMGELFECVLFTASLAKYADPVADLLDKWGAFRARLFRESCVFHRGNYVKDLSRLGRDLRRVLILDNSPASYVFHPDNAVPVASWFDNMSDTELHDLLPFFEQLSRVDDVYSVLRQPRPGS
Briefly: inhibitors of CTDSP1, concentration-response testing, biochemical assay, absorbance-based, actives from ultra-high-throughput screening (AID 540297). It counts as functional.

Experiment [17] has as its target DNA (cytosine-5)-methyltransferase 1 (Homo sapiens, UniProt P26358). Kind of experiment: DNMT1 methyltransferase inhibitors, confirmation, biochemical, fluorescent molecular beacon (AID 602386). It counts as functional.
For experiment [18], the target named is T6, Small ubiquitin-related modifier 1 (Homo sapiens, UniProt P63165). Briefly: inhibitors of SUMO1 partner interactions, dose response, biochemical, FRET (AID 624383). It counts as functional. The note with it: read-out: IC50_Mean.
In experiment [19] the target is T6, Small ubiquitin-related modifier 1. Briefly: inhibitors of SUMO1 peptide binding, dose response, biochemical, fluorescence polarization, uHTS hits (AID 624382). It counts as functional. The note with it: read-out: IC50_Mean.
Experiment [20] deals with Beta-2 adrenergic receptor (Homo sapiens, UniProt P07550). Briefly: beta2AR agonists driving receptor internalization, dose response, cell-based, FAP fluorogen, flow cytometry, cherry pick 1 (AID 588763). It counts as functional.
Experiment [21] has as its target Latent membrane protein 1 (Human herpesvirus 4 (strain B95-8), UniProt P03230). Briefly: TES1-eGFP NF-kB reporter inhibition versus Tet-On dsRED, dose response, selectivity assay for LMP1 NF-kB inhibitor project, imaging, HEK293T, dual-color eGFP/dsRED, cherry-picks (AID 588398). It counts as functional, cell-based.

T6 sequence (P63165 whole entry): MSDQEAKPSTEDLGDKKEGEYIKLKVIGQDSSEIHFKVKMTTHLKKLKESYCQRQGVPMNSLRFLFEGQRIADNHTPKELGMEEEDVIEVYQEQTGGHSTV
T1 sequence (Q9Y256 whole entry): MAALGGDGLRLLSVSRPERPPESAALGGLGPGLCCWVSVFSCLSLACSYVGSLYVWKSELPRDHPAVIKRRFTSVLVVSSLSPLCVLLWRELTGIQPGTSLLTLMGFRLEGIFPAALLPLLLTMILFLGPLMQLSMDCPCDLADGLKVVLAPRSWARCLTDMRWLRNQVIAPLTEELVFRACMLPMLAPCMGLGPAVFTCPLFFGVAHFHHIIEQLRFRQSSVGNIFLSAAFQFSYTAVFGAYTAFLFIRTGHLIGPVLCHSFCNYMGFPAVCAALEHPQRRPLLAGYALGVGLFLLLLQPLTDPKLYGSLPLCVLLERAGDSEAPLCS
Chain of Luciferin 4-monooxygenase (P08659 whole entry): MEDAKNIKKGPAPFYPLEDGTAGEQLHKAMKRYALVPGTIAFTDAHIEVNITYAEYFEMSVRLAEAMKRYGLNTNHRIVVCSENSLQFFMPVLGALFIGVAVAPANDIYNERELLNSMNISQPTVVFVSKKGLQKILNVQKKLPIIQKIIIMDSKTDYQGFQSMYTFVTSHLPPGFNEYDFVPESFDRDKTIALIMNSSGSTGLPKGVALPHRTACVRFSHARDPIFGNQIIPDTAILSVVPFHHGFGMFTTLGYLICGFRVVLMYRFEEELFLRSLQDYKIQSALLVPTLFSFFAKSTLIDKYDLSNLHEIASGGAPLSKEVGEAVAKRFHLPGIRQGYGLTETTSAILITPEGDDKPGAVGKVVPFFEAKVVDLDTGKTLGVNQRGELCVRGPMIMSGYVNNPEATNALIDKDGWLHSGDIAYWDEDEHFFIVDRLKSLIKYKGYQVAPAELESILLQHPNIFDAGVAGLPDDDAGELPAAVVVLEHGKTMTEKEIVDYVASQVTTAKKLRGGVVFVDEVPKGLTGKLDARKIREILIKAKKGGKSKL
Chain of Short transient receptor potential channel 6 (Q61143 whole entry): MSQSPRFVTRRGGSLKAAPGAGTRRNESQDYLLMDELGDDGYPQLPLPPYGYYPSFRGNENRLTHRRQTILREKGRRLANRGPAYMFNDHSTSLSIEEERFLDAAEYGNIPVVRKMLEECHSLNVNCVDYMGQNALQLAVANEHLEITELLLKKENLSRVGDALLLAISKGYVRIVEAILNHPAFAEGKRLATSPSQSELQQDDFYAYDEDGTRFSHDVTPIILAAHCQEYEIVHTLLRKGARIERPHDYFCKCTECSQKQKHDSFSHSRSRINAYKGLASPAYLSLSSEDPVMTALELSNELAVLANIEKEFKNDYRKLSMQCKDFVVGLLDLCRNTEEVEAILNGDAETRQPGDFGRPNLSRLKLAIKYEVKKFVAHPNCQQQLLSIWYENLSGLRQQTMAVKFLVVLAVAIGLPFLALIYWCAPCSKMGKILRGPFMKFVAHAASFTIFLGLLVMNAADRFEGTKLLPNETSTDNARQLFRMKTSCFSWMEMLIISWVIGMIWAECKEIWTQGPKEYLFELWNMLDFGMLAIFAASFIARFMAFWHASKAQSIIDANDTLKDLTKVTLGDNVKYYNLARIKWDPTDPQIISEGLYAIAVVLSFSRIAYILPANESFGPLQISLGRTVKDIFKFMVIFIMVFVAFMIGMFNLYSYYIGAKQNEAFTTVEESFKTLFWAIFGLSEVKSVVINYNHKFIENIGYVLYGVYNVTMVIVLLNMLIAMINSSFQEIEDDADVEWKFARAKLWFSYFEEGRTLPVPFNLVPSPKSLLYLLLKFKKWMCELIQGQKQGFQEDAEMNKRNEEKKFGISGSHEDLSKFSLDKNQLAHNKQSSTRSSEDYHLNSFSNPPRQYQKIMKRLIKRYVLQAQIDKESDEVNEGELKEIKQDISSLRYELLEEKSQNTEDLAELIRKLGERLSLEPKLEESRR
Chain of Phospholipase D2 (O14939 whole entry): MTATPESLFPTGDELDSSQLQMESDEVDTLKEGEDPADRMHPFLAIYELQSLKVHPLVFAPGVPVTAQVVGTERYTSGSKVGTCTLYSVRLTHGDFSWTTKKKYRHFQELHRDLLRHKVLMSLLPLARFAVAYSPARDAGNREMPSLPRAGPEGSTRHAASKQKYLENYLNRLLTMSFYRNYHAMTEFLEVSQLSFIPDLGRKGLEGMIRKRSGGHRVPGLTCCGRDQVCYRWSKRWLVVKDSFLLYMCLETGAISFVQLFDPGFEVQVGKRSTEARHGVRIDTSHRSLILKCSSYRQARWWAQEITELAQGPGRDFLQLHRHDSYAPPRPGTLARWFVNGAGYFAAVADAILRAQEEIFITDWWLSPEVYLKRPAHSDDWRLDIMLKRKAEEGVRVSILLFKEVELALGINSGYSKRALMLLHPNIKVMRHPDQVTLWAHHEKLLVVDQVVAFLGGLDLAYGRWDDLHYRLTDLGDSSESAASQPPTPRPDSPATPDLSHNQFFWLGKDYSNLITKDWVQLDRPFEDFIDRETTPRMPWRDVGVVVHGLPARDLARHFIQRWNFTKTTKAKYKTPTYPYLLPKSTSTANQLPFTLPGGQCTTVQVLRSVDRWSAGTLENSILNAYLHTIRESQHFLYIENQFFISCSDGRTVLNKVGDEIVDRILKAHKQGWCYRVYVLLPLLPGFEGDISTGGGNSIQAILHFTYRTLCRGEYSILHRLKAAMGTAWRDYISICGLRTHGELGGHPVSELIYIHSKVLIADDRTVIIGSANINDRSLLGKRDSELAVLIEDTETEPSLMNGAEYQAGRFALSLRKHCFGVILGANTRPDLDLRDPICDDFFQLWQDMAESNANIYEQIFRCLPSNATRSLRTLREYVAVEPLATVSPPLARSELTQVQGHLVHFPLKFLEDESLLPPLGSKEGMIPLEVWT
Chain of Phospholipase D1 (Q13393 whole entry): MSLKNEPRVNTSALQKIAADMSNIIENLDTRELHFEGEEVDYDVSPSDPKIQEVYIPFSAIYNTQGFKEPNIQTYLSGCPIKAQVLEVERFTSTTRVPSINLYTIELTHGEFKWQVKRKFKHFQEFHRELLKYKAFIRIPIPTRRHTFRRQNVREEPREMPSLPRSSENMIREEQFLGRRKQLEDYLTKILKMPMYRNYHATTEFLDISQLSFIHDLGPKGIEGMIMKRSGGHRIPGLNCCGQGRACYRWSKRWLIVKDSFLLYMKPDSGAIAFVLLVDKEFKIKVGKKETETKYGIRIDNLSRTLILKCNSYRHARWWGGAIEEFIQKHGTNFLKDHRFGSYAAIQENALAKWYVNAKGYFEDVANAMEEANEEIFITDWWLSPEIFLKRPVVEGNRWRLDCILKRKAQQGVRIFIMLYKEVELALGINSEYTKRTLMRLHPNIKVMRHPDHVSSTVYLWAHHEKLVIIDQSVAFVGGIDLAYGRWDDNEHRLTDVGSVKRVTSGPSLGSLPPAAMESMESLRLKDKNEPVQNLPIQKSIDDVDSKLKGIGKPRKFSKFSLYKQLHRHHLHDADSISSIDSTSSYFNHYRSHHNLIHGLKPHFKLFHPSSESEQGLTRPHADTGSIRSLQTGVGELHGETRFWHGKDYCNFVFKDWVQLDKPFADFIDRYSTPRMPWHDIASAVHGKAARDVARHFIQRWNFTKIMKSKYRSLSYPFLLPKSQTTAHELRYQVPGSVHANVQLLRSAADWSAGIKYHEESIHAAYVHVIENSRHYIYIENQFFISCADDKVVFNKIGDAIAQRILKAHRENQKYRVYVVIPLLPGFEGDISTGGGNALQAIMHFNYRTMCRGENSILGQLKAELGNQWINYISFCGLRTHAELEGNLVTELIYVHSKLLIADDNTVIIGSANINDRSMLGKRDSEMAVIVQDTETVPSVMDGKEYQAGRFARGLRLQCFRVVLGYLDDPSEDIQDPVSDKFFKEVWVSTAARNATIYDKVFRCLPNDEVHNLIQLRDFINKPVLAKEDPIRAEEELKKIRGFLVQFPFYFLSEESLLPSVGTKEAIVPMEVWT
Chain of Beta-2 adrenergic receptor (P07550 whole entry): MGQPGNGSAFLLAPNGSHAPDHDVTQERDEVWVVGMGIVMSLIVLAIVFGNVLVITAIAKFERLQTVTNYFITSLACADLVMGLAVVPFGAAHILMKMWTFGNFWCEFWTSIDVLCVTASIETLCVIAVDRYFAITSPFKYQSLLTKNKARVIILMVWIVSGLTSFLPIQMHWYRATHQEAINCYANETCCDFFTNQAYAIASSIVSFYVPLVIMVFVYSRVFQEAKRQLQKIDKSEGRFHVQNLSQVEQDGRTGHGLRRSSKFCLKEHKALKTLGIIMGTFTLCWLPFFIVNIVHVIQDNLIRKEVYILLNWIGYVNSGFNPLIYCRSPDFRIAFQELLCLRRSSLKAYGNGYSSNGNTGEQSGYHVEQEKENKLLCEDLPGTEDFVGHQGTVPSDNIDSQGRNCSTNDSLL
Chain of Beta-adrenergic receptor kinase 1 (P25098 whole entry, the tested form may be a part): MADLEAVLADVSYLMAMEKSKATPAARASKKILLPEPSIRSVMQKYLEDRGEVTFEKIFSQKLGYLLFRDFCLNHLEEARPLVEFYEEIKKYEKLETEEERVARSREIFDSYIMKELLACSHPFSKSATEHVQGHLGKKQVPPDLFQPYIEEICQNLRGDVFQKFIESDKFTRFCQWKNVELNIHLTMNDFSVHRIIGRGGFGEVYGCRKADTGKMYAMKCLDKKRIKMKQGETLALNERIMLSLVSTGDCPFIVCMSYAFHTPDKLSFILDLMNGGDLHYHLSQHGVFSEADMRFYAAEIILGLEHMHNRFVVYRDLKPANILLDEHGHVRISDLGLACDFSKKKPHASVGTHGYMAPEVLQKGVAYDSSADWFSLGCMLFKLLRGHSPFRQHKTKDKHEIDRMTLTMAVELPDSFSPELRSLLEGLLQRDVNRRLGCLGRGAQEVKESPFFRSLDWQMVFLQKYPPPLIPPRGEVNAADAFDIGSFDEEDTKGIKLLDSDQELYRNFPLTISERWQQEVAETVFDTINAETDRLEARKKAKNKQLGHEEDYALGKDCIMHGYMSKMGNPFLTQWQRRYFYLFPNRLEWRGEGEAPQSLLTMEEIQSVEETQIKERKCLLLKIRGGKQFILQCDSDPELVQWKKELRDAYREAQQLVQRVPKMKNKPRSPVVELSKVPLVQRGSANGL

In the case of `CN(C(=O)COC(=O)c1cc([N+](=O)[O-])ccc1Sc1ccccc1)C1CCS(=O)(=O)C1` (centres undefined), the AC50 was 17.3 µM (active) on CAAX prenyl protease 2 [1], 60.6 µM (active) on CAAX prenyl protease 2 [2], 4.85 µM (active) on CAAX prenyl protease 2 [3] and 550 nM (active) on CAAX prenyl protease 2 [4].
For the compound `O=C(c1cnc2ccccc2c1)N1CCCC1CN1CCC(n2c(=O)[nH]c3ccccc32)CC1` (centres undefined), the IC50 on Phospholipase D1 was 2.8 µM (active); at Phospholipase D2, 3.75 µM (active).
For `Cc1ccc(-n2c(N)c(C#N)c(-c3ccccc3)c(C#N)c2=O)cc1`, the EC50 in experiment [5] was < 300 nM (active); in experiment [6] it was 3.22 µM (active); in experiment [7], < 3 µM (active); in experiment [9], 360 nM (active); in experiment [10], > 112 µM (not active). Further, in experiment [8], the AC50 was 7.52 µM (active).
`Cc1ccc(C=NNC(=O)CSc2nnc(-c3ccc(Cl)cc3)n2-c2ccccc2)o1`: at Bcl-2-like protein 10, the IC50 was 3.16 µM (active).
As to `Cc1cc(N2CCCC2)nc2ccccc12`, the IC50 in [11] was 3.59 µM (active); in [12], 11.9 µM (active); in [13], 39.1 µM (active); in experiment [14], 1.84 µM (active).
Regarding `CCOC(=O)C(C)N1C(=O)S/C(=C\c2ccc(-c3ccccc3C(=O)O)o2)C1=O` (centres undefined), the EC50 in experiment [15] was 3.05 µM (active). Moreover, the IC50 in experiment [16] is 1.88 µM (active); in experiment [17], 6.76 µM (active); in experiment [18] it was 10.3 µM (active); in experiment [19] it was > 66.6 µM (inactive).
Take `CCOC(=O)c1ccc(N2C(=O)c3[nH]nc(-c4ccco4)c3C2c2cccc([N+](=O)[O-])c2)cc1` (centres undefined): the EC50 in experiment [20] was 571 nM (active).
Take `CC(=NNC(=S)N1CCCCC1)c1ccccn1`: the AC50 in experiment [21] was 4.29 µM (active).
